Data on 2 molecules can be found in paper PMC8956739, “A synthetic lipopeptide targeting top-priority multidrug-resistant Gram-negative pathogens” (Nature Communications, 2022).

The subject of data set [1] is K. pneumoniae FADDI-KP032. The format is cell-based, Klebsiella pneumoniae. To be noted: FADDI-KP032. On the procedure:
(§1) MICs were determined in cation-adjusted Mueller–Hinton broth (CaMHB) by the broth micro-dilution method against ATCC strains and clinical isolates. MICs in the presence of Survanta® were determined as described above against P. aeruginosa ATCC 27853. In the 100 μL of fresh CaMHB containing polymyxins, 10% Survanta® (v/v, 2.5 mg/mL phospholipids) was added. MICs in the presence and absence of Survanta® were compared to determine the effect of binding to lung surfactant on the antibacterial activity of polymyxins.

In data set [2] the test system is K. pneumoniae FADDI-KP065. The format is cell-based, Klebsiella pneumoniae. The conditions noted are these: FADDI-KP065. The procedure: as §1
The subject of data set [3] is P. aeruginosa ATCC 27853. The format is cell-based, Pseudomonas aeruginosa. The conditions noted are these: ATCC 27853. The procedure: as §1
The subject of data set [4] is P. aeruginosa FADDI-PA038. The format is cell-based, Pseudomonas aeruginosa. The conditions noted are these: FADDI-PA038. On the procedure: as §1
Data set [5] has as its system P. aeruginosa FADDI-PA025. The format is cell-based, Pseudomonas aeruginosa. The conditions noted are these: FADDI-PA025. The procedure:
as §1

Data set [6] deals with P. aeruginosa ATCC 27853. In words: Neutropenic mouse bloodstream infection model. The format is in vivo. To be noted: single IV dose 4 mg/kg; for Log10 CFU/mL blood at 4 h, Mean / Δlog10 CFU/mL blood (mean) / Log10 CFU/mL blood at 4 h, single mouse: 4 h; for Δlog10 CFU/mL blood (mean): treated minus control, mean of replicates; for Δlog10 CFU/mL blood (mean) / Log10 CFU/mL blood at 4 h, single mouse / Delta Log10 CFU/mL blood at 4 h, single mouse: 4 mg/kg; for Delta Log10 CFU/mL blood at 4 h, single mouse: treated mouse minus mean of vehicle mice. On the procedure:
The experimental methodology for the neutropenic mouse bloodstream infection model was described previously. Briefly, 7-week-old female Swiss mice (22–28 g) were rendered neutropenic by intraperitoneal administration of cyclophosphamide, 4 days (150 mg/kg) and 1 day (100 mg/kg) prior to inoculation. Bloodstream infection was established by intravenous administration of a 50 µL bolus of early log-phase bacterial suspension (4 × 10^8 CFU/mL). Lipopeptide solutions were prepared at 1 mg/mL (free base) in sterile saline. At 2 h after inoculation, mice (n = 3) were injected intravenously with lipopeptide solution at 4 mg/kg (free base) or saline control. At 0 and 4 h after administration, blood was collected, diluted serially in sterile saline, and plated on nutrient agar plates. Agar plates were incubated at 37 °C overnight for bacterial colony counting and the bacterial load in the blood (log10 CFU/mL) in each mouse was calculated. In vivo efficacy was calculated as the difference of the log10 CFU/mL blood values between the treated mice and the saline-treated mice at 4 h post dosing (Δlog10 CFU/mL blood = log10 [treated] CFU/mL blood − log10[control] CFU/mL blood).

The subject of data set [7] is Swiss mice, kidney. In words: Nephrotoxicity in mice (kidney histopathology). The format is in vivo, mouse. To be noted: for Kidney histopathology (SQS Score): 72 mg/kg/d subcutaneously in six divided doses every 2 h, n = 3; for Kidney histopathology, mice with the SQS score: mouse, in vivo. On the procedure:
The experimental methodology has been previously reported by our group. Briefly, individual lipopeptide solutions were prepared in sterile saline (6 mg/mL). Swiss mice (female, 7-week-old, 22–28 g) were subcutaneously administered at 12 mg/kg in, 6 doses every 2 h to reach a total dose of 72 mg/kg (n = 3). For high-dose nephrotoxicity experiments, mice were intraperitoneally administered at 20 or 25 mg/kg, in 6 doses every 2 h to reach a total dose of 120 mg/kg (n = 6) or 150 mg/kg (n = 3). At 20 h after the last dose, the right kidney from each mouse was collected and placed in 10% buffered (pH 7.4) formalin (Sigma-Aldrich, Castle Hill, NSW, Australia). The kidneys were subjected to histological examination at the Australian Phenomics Network-Histopathology and Organ Pathology (University of Melbourne, Parkville, VIC, Australia), who was blind to the treatment groups.

Data set [8] deals with A. baumannii FADDI-AB030. The format is cell-based, Acinetobacter baumannii. The conditions noted are these: FADDI-AB030. The procedure: as §1
The test system of data set [9] is A. baumannii ATCC 19606. The format is cell-based, Acinetobacter baumannii. To be noted: ATCC 19606. On the procedure: as §1
In data set [10] the test system is A. baumannii FADDI-AB034. The format is cell-based, Acinetobacter baumannii. The conditions noted are these: FADDI-AB034. On the procedure:
as §1

In brackets after ≈: the same amount, converted by molar mass. Several values for one entry are separate records, joined by “and”; a condition that tells them apart may be missing. Equal values may be shown once. Residues, ends and D or L forms follow the SMILES beside them. Some results are limits rather than exact numbers.

Regarding `CC[C@@H]1NC(=O)[C@@H](CC(C)C)NC(=O)[C@H](CCN)NC(=O)[C@@H](NC(=O)[C@H](CN)NC(=O)[C@@H](NC(=O)[C@H](CCN)NC(=O)c2c(Cl)cccc2Cl)[C@@H](C)O)CCNC(=O)[C@H]([C@@H](C)O)NC(=O)[C@H](CCN)NC(=O)[C@H](CCN)NC1=O` [Lipopeptide F360] (HELM PEPTIDE1{[O=C(c1c(Cl)cccc1Cl)[*:2]].[Dab].T.[NC[C@H](N[*:1])C(=O)[*:2]].[Dab].[Dab].[dL].[Abu].[Dab].[Dab].T}$PEPTIDE1,PEPTIDE1,5:R3-11:R2$$$V2.0), in [1], the “MIC K. pneumoniae FADDI-KP032” value was 1 µg/mL (≈ 0.862 µM). In addition, the “MIC K. pneumoniae FADDI-KP065” value in [2] worked out at 0.5 µg/mL (≈ 0.431 µM). Besides, the “MIC P. aeruginosa ATCC 27853” value in [3] is reported as 0.5 µg/mL (≈ 0.431 µM). Moreover, in data set [4], the “MIC P. aeruginosa FADDI-PA038” value is recorded as 4 µg/mL (≈ 3.45 µM). The “MIC P. aeruginosa FADDI-PA025” value in [5] is recorded as 4 µg/mL (≈ 3.45 µM). For the same molecule, in data set [6], the “Log10 CFU/mL blood at 4 h, Mean” value is 7.04 Log10 CFU/mL blood; the “Δlog10 CFU/mL blood (mean)” value is −0.07 log10 CFU/mL blood; the “Log10 CFU/mL blood at 4 h, single mouse” value was 7.26 Log10 CFU/mL blood and 6.45 Log10 CFU/mL blood and 7.41 Log10 CFU/mL blood; the “Delta Log10 CFU/mL blood at 4 h, single mouse” value was 0.15 Log10 CFU/mL blood and -0.66 Log10 CFU/mL blood and 0.30 Log10 CFU/mL blood. Further, in data set [7], the “Kidney histopathology (SQS Score)” value was 0 (SQS 0 = no significant change (overall score, <1)) and the “Kidney histopathology, mice with the SQS score” value was 3/3. In data set [8], the “MIC A. baumannii FADDI-AB030” value is on record as 4 µg/mL (≈ 3.45 µM). Besides, in data set [9], the “MIC A. baumannii ATCC 19606” value is recorded as 16 µg/mL (≈ 13.8 µM). In data set [10], the “MIC A. baumannii FADDI-AB034” value turned out to be 8 µg/mL (≈ 6.9 µM).

Turning to `CC[C@@H]1NC(=O)[C@@H](CC(C)C)NC(=O)[C@H](CCN)NC(=O)[C@@H](NC(=O)[C@H](CN)NC(=O)[C@@H](NC(=O)[C@H](CCN)NC(=O)c2ccc(Cl)cc2F)[C@@H](C)O)CCNC(=O)[C@H]([C@@H](C)O)NC(=O)[C@H](CCN)NC(=O)[C@H](CCN)NC1=O` [Lipopeptide F448] (HELM PEPTIDE1{[O=C(c1ccc(Cl)cc1F)[*:2]].[Dab].T.[NC[C@H](N[*:1])C(=O)[*:2]].[Dab].[Dab].[dL].[Abu].[Dab].[Dab].T}$PEPTIDE1,PEPTIDE1,5:R3-11:R2$$$V2.0), in data set [1], the “MIC K. pneumoniae FADDI-KP032” value is <0.125 µg/mL. Also, in data set [2], the “MIC K. pneumoniae FADDI-KP065” value was 0.25 µg/mL (≈ 0.219 µM). Further, the “MIC P. aeruginosa ATCC 27853” value in data set [3] amounted to 0.5 µg/mL (≈ 0.437 µM). For the same molecule, the “MIC P. aeruginosa FADDI-PA038” value in data set [4] amounted to 0.5 µg/mL (≈ 0.437 µM). In addition, the “MIC P. aeruginosa FADDI-PA025” value in data set [5] was 1 µg/mL (≈ 0.874 µM). Further, in [6], the “Log10 CFU/mL blood at 4 h, Mean” value is reported as 4.51 Log10 CFU/mL blood; the “Δlog10 CFU/mL blood (mean)” value was −3.06 log10 CFU/mL blood; the “Log10 CFU/mL blood at 4 h, single mouse” value was 4.51 Log10 CFU/mL blood and 4.31 Log10 CFU/mL blood and 4.72 Log10 CFU/mL blood; the “Delta Log10 CFU/mL blood at 4 h, single mouse” value was -3.07 Log10 CFU/mL blood and -3.27 Log10 CFU/mL blood and -2.85 Log10 CFU/mL blood. In [7], the “Kidney histopathology (SQS Score)” value is reported as 0 (SQS 0 = no significant change (overall score, <1)) and the “Kidney histopathology, mice with the SQS score” value is given as 3/3. Moreover, the “MIC A. baumannii FADDI-AB030” value in [8] came out at 1 µg/mL (≈ 0.874 µM). Besides, the “MIC A. baumannii ATCC 19606” value in [9] was 2 µg/mL (≈ 1.75 µM). Moreover, the “MIC A. baumannii FADDI-AB034” value in data set [10] is recorded as 0.5 µg/mL (≈ 0.437 µM).
